ChEMBL document CHEMBL1141537, “Design and synthesis of dihydroindazolo[5,4-a]pyrrolo[3,4-c]carbazole oximes as potent dual inhibitors of TIE-2 and VEGF-R2 receptor tyrosine kinases” (Bioorg Med Chem Lett, 2008)
Each block holds one molecule with its values, some of them ahead of it.

How the values were obtained:
[1] = target: Angiopoietin-1 receptor (Homo sapiens, UniProt Q02763); assay: Inhibition of human recombinant TIE2 by HTRF assay
[2] = Volume of distribution in rat at 1 mg/kg, iv; assay type: ADME, organism-based; design: dose 1 mg/kg, route intravenous; settings: in vivo
[3] = Half life in rat at 1 mg/kg, iv; assay type: ADME, organism-based; design: dose 1 mg/kg, route intravenous; settings: in vivo
[4] = Clearance in rat at 1 mg/kg, iv; assay type: ADME, organism-based; design: dose 1 mg/kg, route intravenous; settings: in vivo
[5] = AUC (0 to infinity) in rat at 5 mg/kg, po; assay type: ADME, organism-based; design: time infinity, dose 5 mg/kg, route oral; settings: plasma
[6] = Oral bioavailability in rat at 5 mg/kg; assay type: ADME, organism-based; settings: in vivo
[7] = target: Insulin receptor (Homo sapiens, UniProt P06213); assay: Inhibition of IR
Chain of Insulin receptor (P06213 28-758 limits assumed): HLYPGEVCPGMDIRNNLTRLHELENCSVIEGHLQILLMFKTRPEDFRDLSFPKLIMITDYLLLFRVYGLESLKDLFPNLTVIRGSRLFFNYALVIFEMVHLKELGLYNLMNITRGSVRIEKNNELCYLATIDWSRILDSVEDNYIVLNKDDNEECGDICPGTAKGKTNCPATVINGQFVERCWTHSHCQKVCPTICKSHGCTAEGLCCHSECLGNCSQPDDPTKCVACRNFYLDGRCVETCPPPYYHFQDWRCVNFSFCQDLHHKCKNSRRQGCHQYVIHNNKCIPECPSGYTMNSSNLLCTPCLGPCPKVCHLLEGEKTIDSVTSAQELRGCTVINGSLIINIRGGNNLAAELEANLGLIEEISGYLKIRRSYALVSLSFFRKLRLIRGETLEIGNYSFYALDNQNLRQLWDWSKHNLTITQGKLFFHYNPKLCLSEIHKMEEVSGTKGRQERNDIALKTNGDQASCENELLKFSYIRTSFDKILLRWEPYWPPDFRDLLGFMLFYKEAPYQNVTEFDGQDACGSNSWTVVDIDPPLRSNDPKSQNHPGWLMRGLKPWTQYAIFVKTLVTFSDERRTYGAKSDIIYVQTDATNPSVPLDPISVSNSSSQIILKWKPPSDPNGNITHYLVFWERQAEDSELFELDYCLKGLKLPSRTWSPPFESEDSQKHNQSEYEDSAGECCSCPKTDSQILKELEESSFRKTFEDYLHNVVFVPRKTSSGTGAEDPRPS
Chain of Insulin receptor (P06213 763-1382 limits assumed): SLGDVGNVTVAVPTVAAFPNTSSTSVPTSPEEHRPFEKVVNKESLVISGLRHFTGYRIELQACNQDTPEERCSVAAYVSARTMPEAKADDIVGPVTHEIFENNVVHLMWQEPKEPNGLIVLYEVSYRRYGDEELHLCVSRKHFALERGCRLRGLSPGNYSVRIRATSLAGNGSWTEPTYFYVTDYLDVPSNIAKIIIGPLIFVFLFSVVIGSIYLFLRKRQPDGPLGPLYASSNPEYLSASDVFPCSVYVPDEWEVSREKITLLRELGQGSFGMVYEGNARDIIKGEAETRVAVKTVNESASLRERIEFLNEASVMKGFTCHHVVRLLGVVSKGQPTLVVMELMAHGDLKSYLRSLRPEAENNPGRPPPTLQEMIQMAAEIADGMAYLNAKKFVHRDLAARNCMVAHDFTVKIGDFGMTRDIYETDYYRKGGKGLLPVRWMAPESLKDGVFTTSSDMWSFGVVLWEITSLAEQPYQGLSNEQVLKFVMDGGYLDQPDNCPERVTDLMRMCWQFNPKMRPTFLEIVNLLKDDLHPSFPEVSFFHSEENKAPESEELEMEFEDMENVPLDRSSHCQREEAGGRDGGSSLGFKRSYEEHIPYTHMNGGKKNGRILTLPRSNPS

[8] = target: Epidermal growth factor receptor (Homo sapiens, UniProt P00533); assay: Inhibition of EGFR
[9] = AUC (0 to infinity) in rat at 1 mg/kg, iv; assay type: ADME, organism-based; design: time infinity, dose 1 mg/kg, route intravenous; settings: plasma
[10] = target: Vascular endothelial growth factor receptor 2 (Homo sapiens, UniProt P35968); assay: Inhibition of human recombinant VEGFR2 by HTRF assay
Chain of Vascular endothelial growth factor receptor 2 (P35968 whole entry): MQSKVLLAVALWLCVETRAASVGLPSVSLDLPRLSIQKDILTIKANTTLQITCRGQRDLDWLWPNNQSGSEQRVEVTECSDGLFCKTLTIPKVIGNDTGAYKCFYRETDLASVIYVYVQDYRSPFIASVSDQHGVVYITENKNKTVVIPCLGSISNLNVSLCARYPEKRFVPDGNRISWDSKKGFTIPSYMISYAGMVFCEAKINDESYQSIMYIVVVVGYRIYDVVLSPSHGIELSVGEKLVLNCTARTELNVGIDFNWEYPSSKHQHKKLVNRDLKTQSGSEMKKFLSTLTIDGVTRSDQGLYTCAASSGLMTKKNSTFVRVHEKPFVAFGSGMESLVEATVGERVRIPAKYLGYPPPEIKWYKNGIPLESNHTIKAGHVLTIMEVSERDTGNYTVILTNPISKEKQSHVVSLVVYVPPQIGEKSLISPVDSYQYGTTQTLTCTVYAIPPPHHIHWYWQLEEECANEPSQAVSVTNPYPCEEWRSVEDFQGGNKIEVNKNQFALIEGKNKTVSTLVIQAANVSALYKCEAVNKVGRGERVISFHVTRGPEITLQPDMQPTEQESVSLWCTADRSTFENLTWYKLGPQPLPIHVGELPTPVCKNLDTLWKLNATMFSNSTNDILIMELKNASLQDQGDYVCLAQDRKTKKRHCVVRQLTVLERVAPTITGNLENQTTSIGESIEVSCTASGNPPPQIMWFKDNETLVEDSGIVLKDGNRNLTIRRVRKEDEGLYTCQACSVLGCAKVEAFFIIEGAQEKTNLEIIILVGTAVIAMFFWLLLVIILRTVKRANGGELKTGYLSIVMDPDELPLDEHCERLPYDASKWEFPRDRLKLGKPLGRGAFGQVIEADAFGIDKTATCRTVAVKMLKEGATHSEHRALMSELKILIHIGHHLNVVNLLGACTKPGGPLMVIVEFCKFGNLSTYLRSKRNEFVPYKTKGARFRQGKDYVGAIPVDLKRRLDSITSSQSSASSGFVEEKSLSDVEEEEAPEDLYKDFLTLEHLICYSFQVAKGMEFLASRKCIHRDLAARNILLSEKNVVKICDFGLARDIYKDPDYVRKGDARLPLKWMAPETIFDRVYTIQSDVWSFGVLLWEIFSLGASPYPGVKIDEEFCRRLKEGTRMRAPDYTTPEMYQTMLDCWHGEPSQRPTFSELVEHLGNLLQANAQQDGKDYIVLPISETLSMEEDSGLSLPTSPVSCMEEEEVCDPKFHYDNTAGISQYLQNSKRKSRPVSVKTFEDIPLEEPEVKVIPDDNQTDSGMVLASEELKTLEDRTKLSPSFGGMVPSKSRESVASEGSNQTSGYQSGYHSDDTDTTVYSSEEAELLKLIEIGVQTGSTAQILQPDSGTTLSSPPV

[11] = Cmax in rat at 5 mg/kg, po; assay type: ADME, organism-based; design: dose 5 mg/kg, route oral; settings: in vivo
[12] = Half life in rat at 5 mg/kg, po; assay type: ADME, organism-based; design: dose 5 mg/kg, route oral; settings: in vivo
[13] = target: Proto-oncogene tyrosine-protein kinase Src (Homo sapiens, UniProt P12931); assay: Inhibition of c-src
Chain of Proto-oncogene tyrosine-protein kinase Src (P12931 2-536 limits assumed): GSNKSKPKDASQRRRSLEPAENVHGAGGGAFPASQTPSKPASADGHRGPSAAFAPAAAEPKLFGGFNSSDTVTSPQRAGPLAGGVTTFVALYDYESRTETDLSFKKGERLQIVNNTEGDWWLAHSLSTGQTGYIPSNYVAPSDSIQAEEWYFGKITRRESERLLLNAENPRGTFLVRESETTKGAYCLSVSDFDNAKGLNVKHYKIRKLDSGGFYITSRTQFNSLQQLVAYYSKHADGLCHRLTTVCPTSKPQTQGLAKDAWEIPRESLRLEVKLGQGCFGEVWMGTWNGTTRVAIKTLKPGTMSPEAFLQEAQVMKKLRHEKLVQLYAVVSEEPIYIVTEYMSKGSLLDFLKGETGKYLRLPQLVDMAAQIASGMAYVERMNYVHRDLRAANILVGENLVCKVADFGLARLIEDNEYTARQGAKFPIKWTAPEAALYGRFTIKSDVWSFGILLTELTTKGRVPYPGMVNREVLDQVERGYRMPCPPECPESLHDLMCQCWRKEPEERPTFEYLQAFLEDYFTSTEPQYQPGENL

[14] = tested on: HUVEC; assay: Cytotoxicity against HUVEC cells; assay type: cell-based; settings: human
[15] = tested on: A-375; assay: Cytotoxicity against human A375 cells; assay type: functional, cell-based
[16] = target: Vascular endothelial growth factor receptor 3 (Homo sapiens, UniProt P35916); assay: Inhibition of VEGFR3
[17] = tested on: A-375; assay: Antitumor activity against human A375 cells xenografted mouse assessed as partial tumor regression at 10 mg/kg, po bid relative to control; assay type: functional
[18] = tested on: Mus musculus; assay: Toxicity in A375 cells xenografted mouse melanoma model assessed as mortality; assay type: organism-based, A-375; settings: in vivo
[19] = tested on: HUVEC; assay: Inhibition of VEGF-induced HUVEC cells capillary tube formation relative to control; assay type: functional, cell-based; settings: Homo sapiens
[20] = target: Vascular endothelial growth factor receptor 1 (Homo sapiens, UniProt P17948); assay: Inhibition of VEGFR1
[21] = species: Rattus norvegicus; assay: Ex vivo antiangiogenic activity in rat aortic ring explant assessed as inhibition of microvessel outgrowth after 10 days; assay type: functional; settings: Aorta, 240 h
[22] = tested on: A-375; assay: Antitumor activity against human A375 cells xenografted mouse assessed as tumor growth inhibition at 10 mg/kg, po bid relative to control; assay type: functional; design: scale not given: the % may be the effect or the level left

Chain of Angiopoietin-1 receptor (Q02763 whole entry): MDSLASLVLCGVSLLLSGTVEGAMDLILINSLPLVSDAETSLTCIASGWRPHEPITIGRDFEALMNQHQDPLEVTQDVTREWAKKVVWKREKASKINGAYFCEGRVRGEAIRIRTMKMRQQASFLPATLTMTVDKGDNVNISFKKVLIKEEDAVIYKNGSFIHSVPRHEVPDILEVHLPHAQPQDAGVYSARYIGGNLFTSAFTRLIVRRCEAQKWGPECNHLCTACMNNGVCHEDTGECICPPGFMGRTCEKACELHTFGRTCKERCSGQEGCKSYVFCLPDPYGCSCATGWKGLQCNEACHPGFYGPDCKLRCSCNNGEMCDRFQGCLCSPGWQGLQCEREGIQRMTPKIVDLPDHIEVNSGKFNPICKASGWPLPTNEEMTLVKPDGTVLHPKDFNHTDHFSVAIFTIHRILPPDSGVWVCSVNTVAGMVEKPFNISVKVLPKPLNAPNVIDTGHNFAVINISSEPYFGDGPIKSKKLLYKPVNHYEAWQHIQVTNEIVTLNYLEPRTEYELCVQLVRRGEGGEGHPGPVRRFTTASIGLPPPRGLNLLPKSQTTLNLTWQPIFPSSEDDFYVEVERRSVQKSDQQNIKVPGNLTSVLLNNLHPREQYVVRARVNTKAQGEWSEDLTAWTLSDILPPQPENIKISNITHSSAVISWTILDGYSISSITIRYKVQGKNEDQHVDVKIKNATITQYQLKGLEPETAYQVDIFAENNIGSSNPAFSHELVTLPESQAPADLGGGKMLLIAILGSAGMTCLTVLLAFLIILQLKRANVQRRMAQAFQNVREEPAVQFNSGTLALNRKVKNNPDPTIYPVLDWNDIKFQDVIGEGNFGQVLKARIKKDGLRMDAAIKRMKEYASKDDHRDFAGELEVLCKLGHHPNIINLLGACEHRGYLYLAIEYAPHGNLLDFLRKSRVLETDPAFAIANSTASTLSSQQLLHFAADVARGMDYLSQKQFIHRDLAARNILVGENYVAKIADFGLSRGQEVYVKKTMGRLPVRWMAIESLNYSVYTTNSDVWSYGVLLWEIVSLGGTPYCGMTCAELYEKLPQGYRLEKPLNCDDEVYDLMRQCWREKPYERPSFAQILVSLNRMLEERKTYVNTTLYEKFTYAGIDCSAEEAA

- IC50 [1]: 66 nM
SMILES: C/C(=N\OC(C)C)c1ccc2c(c1)c1c3c(c4c(c1n2C(C)C)CCc1nn(C)cc1-4)C(=O)NC3

- Vd [2]: 1.3 L/kg
- half-life [3]: 2 h
- clearance [4]: 7.4 mL/min/kg
- AUC(0-inf) [5]: 3610 ng·h/mL
- IC50 [1]: 26 nM
- bioavailability [6]: 31%
- IC50 [7]: > 1000 nM
- IC50 [8]: > 1000 nM
- AUC(0-inf) [9]: 2300 ng·h/mL
- IC50 [10]: 4 nM
- Cmax [11]: 637 ng/mL
- half-life [12]: 3.2 h
- IC50 [13]: 14 nM
SMILES: CCO/N=C(\C)c1ccc2c(c1)c1c3c(c4c(c1n2C(C)C)CCc1nn(C)cc1-4)C(=O)NC3

- IC50 [1]: 25 nM
SMILES: CCO/N=C(\C)c1ccc2c(c1)c1c3c(c4c(c1n2CC(C)C)CCc1nn(C)cc1-4)C(=O)NC3

- IC50 [1]: 52 nM
SMILES: C/C(=N\OC(C)C)c1ccc2c(c1)c1c3c(c4c(c1n2CC(C)C)CCc1nn(C)cc1-4)C(=O)NC3

- IC50 [1]: 23 nM
SMILES: C/C(=N\OCC(C)C)c1ccc2c(c1)c1c3c(c4c(c1n2CC(C)C)CCc1nn(C)cc1-4)C(=O)NC3

- IC50 [1]: 1300 nM
SMILES: Cn1cc2c(n1)CCc1c-2c2c(c3c1[nH]c1ccccc13)CNC2=O

- IC50 [1]: 30 nM
SMILES: CCCn1c2ccc(/C(C)=N/OC)cc2c2c3c(c4c(c21)CCc1nn(C)cc1-4)C(=O)NC3

- IC50 [1]: 10 nM
SMILES: C/C(=N\OCC(C)C)c1ccc2[nH]c3c4c(c5c(c3c2c1)CNC5=O)-c1cn(C)nc1CC4

- IC50 [1]: 264 nM
SMILES: CO/N=C(/c1ccc2[nH]c3c4c(c5c(c3c2c1)CNC5=O)-c1cn(C)nc1CC4)C(C)C

- IC50 [1]: 93 nM
SMILES: C/C(=N\OC(C)(C)C)c1ccc2[nH]c3c4c(c5c(c3c2c1)CNC5=O)-c1cn(C)nc1CC4

- IC50 [1]: 97 nM
SMILES: CO/N=C(\C)c1ccc2c(c1)c1c3c(c4c(c1n2C(C)C)CCc1nn(C)cc1-4)C(=O)NC3

- IC50 [1]: 44 nM
SMILES: C/C(=N\O)c1ccc2[nH]c3c4c(c5c(c3c2c1)CNC5=O)-c1cn(C)nc1CC4

- IC50 [1]: 23 nM
SMILES: CCO/N=C(\C)c1ccc2[nH]c3c4c(c5c(c3c2c1)CNC5=O)-c1cn(C)nc1CC4

- IC50 [1]: 300 nM
SMILES: CCn1c2ccc(/C(C)=N/OC)cc2c2c3c(c4c(c21)CCc1nn(C)cc1-4)C(=O)NC3

- IC50 [1]: 71 nM
SMILES: CO/N=C(\C)c1ccc2[nH]c3c4c(c5c(c3c2c1)CNC5=O)-c1cn(C)nc1CC4

- IC50 [1]: 108 nM
SMILES: CCCCn1c2ccc(/C(C)=N/OC)cc2c2c3c(c4c(c21)CCc1nn(C)cc1-4)C(=O)NC3

- IC50 [1]: 92 nM
SMILES: CCO/N=C(/c1ccc2[nH]c3c4c(c5c(c3c2c1)CNC5=O)-c1cn(C)nc1CC4)C(C)C

- IC50 [1]: 28 nM
SMILES: C/C(=N\OC(C)C)c1ccc2[nH]c3c4c(c5c(c3c2c1)CNC5=O)-c1cn(C)nc1CC4

- IC50 [1]: 264 nM
SMILES: CCO/N=C/c1ccc2[nH]c3c4c(c5c(c3c2c1)CNC5=O)-c1cn(C)nc1CC4

SMILES: CO/N=C(\C)c1ccc2c(c1)c1c3c(c4c(c1n2CC(C)C)CCc1nn(C)cc1-4)C(=O)NC3
- Vd [2]: 0.8 L/kg
- half-life [3]: 1.4 h
- clearance [4]: 6.5 mL/min/kg
- Activity [14]: Non-toxic
- EC50 [15]: 70 nM
- AUC(0-inf) [5]: 9060 ng·h/mL
- IC50 [1]: 30 nM
- bioavailability [6]: 66%
- IC50 [16]: 10 nM
- IC50 [7]: > 1000 nM
- Activity [17]: 38%
- Activity [18]: Non-toxic
- IC50 [8]: > 1000 nM
- EC50 [19]: 1 nM
- AUC(0-inf) [9]: 2760 ng·h/mL
- IC50 [20]: 8 nM
- IC50 [10]: 7 nM
- Cmax [11]: 874 ng/mL
- EC50 [21]: 3 nM
- half-life [12]: 6.5 h
- IC50 [13]: 43 nM
- Activity [22]: 80%

- IC50 [1]: 46 nM
SMILES: C/C(=N\OCC(C)C)c1ccc2c(c1)c1c3c(c4c(c1n2C(C)C)CCc1nn(C)cc1-4)C(=O)NC3

- IC50 [1]: 2 nM
SMILES: COc1ccc(-c2oc3ncnc(N)c3c2-c2ccc(NC(=O)Nc3c(F)cccc3C(F)(F)F)cc2)cc1

- IC50 [1]: 45 nM
SMILES: CCn1c2ccc(/C(C)=N/OCC(C)C)cc2c2c3c(c4c(c21)CCc1nn(C)cc1-4)C(=O)NC3

- IC50 [1]: 148 nM
SMILES: CO/N=C/c1ccc2[nH]c3c4c(c5c(c3c2c1)CNC5=O)-c1cn(C)nc1CC4

- IC50 [1]: 347 nM
SMILES: CO/N=C(\C)c1ccc2c(c1)c1c3c(c4c(c1n2C)CCc1nn(C)cc1-4)C(=O)NC3
